Reference: EP4094756A1 (priority 2021, dated 2022)

System: SARS-CoV-2 VOC (Alpha, Beta, and Delta)
Assay: SARS-CoV2 VOC testing in Vero cells, standard plaque assay
Type: cell-based

Cc1cc(O)c2c(=O)c3c(O)cc(O)c4c5c(O)cc(O)c6c(=O)c7c(O)cc(C)c8c1c2c(c34)c(c78)c65 [Hypericin, hypericin]
drop of virus titers in comparison to DMSO-treated controls: 3-5 log steps
